Source: patent US6194398A, “Phosphonate nucleotide compound” (Mitsubishi Chemical Corporation, priority 1996, dated 2001)
Read-outs that look alike come from different tables or passages of the source.

Tests used:
[1] = Cytotoxicity: concentration causing death to 50% of HB611 cells; assay type: cell-based; conditions: human, read-out: 50% Cytotoxic concentration for HB611 cells
Experimental: A total of 2×10^4 cells of HB611 (a HBV-producing recombinant human hepatoma cell strain) were cultured at 37° C. in Dulbecco's ME medium containing 10% fetal bovine serum, streptomycin (100 μg/ml), penicillin (100 IU/ml) and Geneticin (trade name, an antibiotic substance manufactured by Life Technologies) (0.2 mg/ml). […] The amount of HBV-DNA in the cells was measured by Southern blotting to calculate concentration of the compound to give 50% inhibition of HBV-DNA synthesis. Also, the concentration of each compound required for causing death to 50% of the HB611 cells was calculated. For the sake of comparison, the same test was carried out on a known compound PMFA, a dipivaloyloxymethyl ester of PMEA (Reference Example 1) and a known compound 9-[2-[bis(2,2,2-trifluoroethyl)-phosphonylmethoxy]ethyl]-2-amino-6-p-toluylthiopurine disclosed in EP 632048 (Reference Example 2). In this connection, the compound No. corresponds to the compound No. in Table 1.

Hepatitis B virus (HBV) = experiment: HBV growth inhibition effect: HBV-DNA synthesis in HB611 cells, Southern blotting; assay type: cell-based; conditions: read-out: 50% inhibitory concentration for HBV-DNA synthesis
Experimental: Hepatitis B virus (HBV) growth inhibition effect
HBV growth inhibition effect was measured in accordance with a known method (K. Ueda et al., Virology, 169, 213-216 (1989)).
A total of 2×10^4 cells of HB611 (a HBV-producing recombinant human hepatoma cell strain) were cultured at 37° C. in Dulbecco's ME medium containing 10% fetal bovine serum, streptomycin (100 μg/ml), penicillin (100 IU/ml) and Geneticin (trade name, an antibiotic substance manufactured by Life Technologies) (0.2 mg/ml). The medium was exchanged on the 2nd and 5th days of the culturing and then replaced by the medium supplemented with a sample to be tested at a final concentration of from 0.005 to 100 μM after 8, 11 and 14 days of the culturing, and DNA was recovered from the cells after 17 days of the culturing. The amount of HBV-DNA in the cells was measured by Southern blotting to calculate concentration of the compound to give 50% inhibition of HBV-DNA synthesis. Also, the concentration of each compound required for causing death to 50% of the HB611 cells was calculated. For the sake of comparison, the same test was carried out on a known compound PMFA, a dipivaloyloxymethyl ester of PMEA (Reference Example 1) and a known compound 9-[2-[bis(2,2,2-trifluoroethyl)-phosphonylmethoxy]ethyl]-2-amino-6-p-toluylthiopurine disclosed in EP 632048 (Reference Example 2). In this connection, the compound No. corresponds to the compound No. in Table 1.

HBV = experiment: Inhibitory effect on HBV replication of low molecular weight fraction of liver homogenate of orally dosed mouse; assay type: cell-based, hepatitis B virus; conditions: 0.2 g/kg oral, liver 1 hour after administration, 1% low molecular weight fraction in HB611 medium
Experimental: Inhibitory effect on HBV replication of low molecular weight fraction prepared from liver homogenate of a mouse that was orally administered with a compound.
A sample to be tested was orally administered to each mouse of three animals per group in a dose of 0.2 g/kg, liver perfusion was carried out from the portal vein one hour after the administration and then the liver was excised. The thus excised liver was mixed with the same weight of physiological saline and was homogenized, and then a sample of low molecular weight fraction of the homogenate was prepared using an ultrafiltration membrane having a cutoff of 5,000 molecular weight.
A total of 2×10^4 cells of HB611 were cultured at 37° C. in Dulbecco's ME medium containing 10% fetal bovine serum, streptomycin (100 μg/ml), penicillin (100 IU/ml) and Geneticin (0.2 mg/ml). The medium was exchanged on the 2nd and 5th days of the culturing and then replaced by the medium supplemented with 1% of the just described low molecular weight fraction sample after 8, 11 and 14 days of the culturing, and DNA was recovered from the cells after 17 days of the culturing. The amount of HBV-DNA in the cells was measured by Southern blotting to evaluate inhibitory effect on HBV-DNA synthesis in the cells. […]

[2] = system: human hepatitis B virus (HBV); conditions: reported in literature; cited from earlier work
[3] = system: human immunodeficiency virus (HIV); conditions: reported in literature; cited from earlier work
[4] = system: herpes simplex virus type 1 (HSV-1); conditions: reported in literature; cited from earlier work
[5] = system: herpes simplex virus type 2 (HSV-2); conditions: reported in literature; cited from earlier work
[6] = 408 h, HB611 cells, medium with sample on days 8, 11 and 14, DNA recovered after 17 days

`CC(C)(C)C(=O)OCOP(=O)(COCCn1cnc2c(N)ncnc21)OCOC(=O)C(C)(C)C` [Ref. Ex. 1] gave a CC50 [1] of 17.7 µM and an IC50 (Hepatitis B virus (HBV); HB611, 408 h) of 1.08 µM.
In the case of `CC(C)Sc1nc(N)nc2c1ncn2CCOCP(=O)(OCC(F)(F)F)OCC(F)(F)F` [Compound 4, 2-amino-9-[2-[bis(2,2,2-trifluoroethyl)phosphonylmethoxy]ethyl]-6-i-propylthiopurine], the CC50 [1] is reported as > 1000 µM and the IC50 (Hepatitis B virus (HBV); [6]) is reported as 0.07 µM.
With `Cc1ccc(Sc2nc(N)nc3c2ncn3CCOCP(=O)(OCC(F)(F)F)OCC(F)(F)F)cc1` [Ref. Ex. 2, 9-[2-[bis(2,2,2-trifluoroethyl)-phosphonylmethoxy]ethyl]-2-amino-6-p-toluylthiopurine] the IC50 (Hepatitis B virus (HBV); [6]) was 0.06 µM.
For `CCCSc1nc(N)nc2c1ncn2CCOCP(=O)(O)O` [Ref. Ex. 3, 2-amino-9-(2-phosphonylmethoxyethyl)-6-n-propylthiopurine], the “% inhibition of HBV-DNA synthesis” value (HBV) was 17%.
For `Nc1nc(N)c2ncn(CCOCP(=O)(O)O)c2n1` [PMDAP, 9-(2-phosphonylmethoxy)ethyl-2,6-diaminopurine], the “effective against HBV” value [2] is listed as “effective”, the “effective against HIV” value [3] is listed as “effective” and the “effective against HSV-1” value [4] is listed as “effective”. For the same compound, the “effective against HSV-2” value [5] was “effective”.
In the case of `CCCSc1nc(N)nc2c1ncn2CCOCP(=O)(OCC(F)(F)F)OCC(F)(F)F` [Compound 3, 2-amino-9-[2-[bis(2,2,2-trifluoroethyl)phosphonylmethoxy]ethyl]-6-n-propylthiopurine], the CC50 [1] is reported as > 1000 µM, the “% inhibition of HBV-DNA synthesis” value (HBV) is reported as 49% and the IC50 (Hepatitis B virus (HBV); [6]) is reported as 0.02 µM.
In the case of `Nc1ncnc2c1ncn2CCOCP(=O)(O)O` [PMEA, 9-(2-phosphonylmethoxy)ethyladenine], the “effective against HBV” value [2] is given as “effective”, the “effective against HIV” value [3] is given as “effective” and the “effective against HSV-1” value [4] is given as “effective”. For the same compound, the “effective against HSV-2” value [5] was “effective”, the CC50 [1] was 334 µM and the IC50 (Hepatitis B virus (HBV); HB611, 408 h) was 0.3 µM.
In the case of `CCSc1nc(N)nc2c1ncn2CCOCP(=O)(OCC(F)(F)F)OCC(F)(F)F` [Compound 2, 2-amino-9-[2-[bis(2,2,2-trifluoroethyl)phosphonylmethoxy]ethyl]-6-ethylthiopurine], the CC50 [1] is reported as > 1000 µM and the IC50 (Hepatitis B virus (HBV); [6]) is reported as 0.06 µM.
